Laboratory results: US11512090B2, “Muscarinic acetylcholine M1 receptor antagonists” (PIPELINE THERAPEUTICS, INC., priority 2018, dated 2022)
pIC50: −log10 of the molar value. Where two headings read alike, the source gives them in different places. One block for each molecule: values may come before it.

Experiments:
Format in all cases: cell-based
[1] = biological target: T1, M2 (Homo sapiens, UniProt P08172); experiment: In vitro functional assay of muscarinic acetylcholine receptor activity, M2
T1 sequence (P08172 1-466): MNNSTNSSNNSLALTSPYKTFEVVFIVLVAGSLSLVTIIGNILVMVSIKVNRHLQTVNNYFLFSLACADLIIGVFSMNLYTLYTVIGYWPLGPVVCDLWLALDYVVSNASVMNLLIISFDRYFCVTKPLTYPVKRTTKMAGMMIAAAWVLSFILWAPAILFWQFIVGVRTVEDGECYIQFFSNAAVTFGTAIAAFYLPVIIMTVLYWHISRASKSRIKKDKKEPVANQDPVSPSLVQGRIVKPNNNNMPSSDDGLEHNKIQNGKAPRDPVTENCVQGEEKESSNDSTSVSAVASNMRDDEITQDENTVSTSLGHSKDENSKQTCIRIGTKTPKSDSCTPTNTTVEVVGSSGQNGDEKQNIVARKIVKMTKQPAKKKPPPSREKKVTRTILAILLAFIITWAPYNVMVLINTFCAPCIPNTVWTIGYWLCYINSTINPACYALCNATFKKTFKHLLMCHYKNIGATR

[2] = biological target: T2, human M1 receptor (Homo sapiens, UniProt P11229); experiment: In vitro functional assay of muscarinic acetylcholine receptor activity (aequorin calcium flux, antagonist mode vs EC80 acetylcholine), M1
T2 sequence (P11229 1-460): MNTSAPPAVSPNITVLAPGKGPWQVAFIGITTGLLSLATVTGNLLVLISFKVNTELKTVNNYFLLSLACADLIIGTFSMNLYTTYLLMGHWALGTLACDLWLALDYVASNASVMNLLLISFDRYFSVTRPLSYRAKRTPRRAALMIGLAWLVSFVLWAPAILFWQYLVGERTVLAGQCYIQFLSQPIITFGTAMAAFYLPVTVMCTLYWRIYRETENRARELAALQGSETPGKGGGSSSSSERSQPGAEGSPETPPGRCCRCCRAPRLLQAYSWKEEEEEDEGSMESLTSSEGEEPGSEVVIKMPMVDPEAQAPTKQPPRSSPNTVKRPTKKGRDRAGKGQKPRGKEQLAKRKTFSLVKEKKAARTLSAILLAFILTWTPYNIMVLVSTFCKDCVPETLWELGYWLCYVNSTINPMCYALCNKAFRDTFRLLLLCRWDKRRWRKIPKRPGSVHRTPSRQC
How it was run: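 CHO-K1 cells stably co-expressing human M1 and aequorin were loaded with 5 uM coelenterazine h for 4 h at room temperature in the dark. IC50 came from the drop in luminescence.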

[3] = biological target: M3 (Homo sapiens, UniProt P20309); experiment: In vitro functional assay of muscarinic acetylcholine receptor activity, M3; conditions: antagonist IC50 at M3; read-out: M3 IC50
[4] = antagonist IC50 at M2, read-out: M2 IC50
[5] = CHO-K1 cells stably expressing human M1 receptor with Aequorin, decrease in EC80 acetylcholine response, read-out: M1 IC50

Sequence of M3 (P20309 whole entry): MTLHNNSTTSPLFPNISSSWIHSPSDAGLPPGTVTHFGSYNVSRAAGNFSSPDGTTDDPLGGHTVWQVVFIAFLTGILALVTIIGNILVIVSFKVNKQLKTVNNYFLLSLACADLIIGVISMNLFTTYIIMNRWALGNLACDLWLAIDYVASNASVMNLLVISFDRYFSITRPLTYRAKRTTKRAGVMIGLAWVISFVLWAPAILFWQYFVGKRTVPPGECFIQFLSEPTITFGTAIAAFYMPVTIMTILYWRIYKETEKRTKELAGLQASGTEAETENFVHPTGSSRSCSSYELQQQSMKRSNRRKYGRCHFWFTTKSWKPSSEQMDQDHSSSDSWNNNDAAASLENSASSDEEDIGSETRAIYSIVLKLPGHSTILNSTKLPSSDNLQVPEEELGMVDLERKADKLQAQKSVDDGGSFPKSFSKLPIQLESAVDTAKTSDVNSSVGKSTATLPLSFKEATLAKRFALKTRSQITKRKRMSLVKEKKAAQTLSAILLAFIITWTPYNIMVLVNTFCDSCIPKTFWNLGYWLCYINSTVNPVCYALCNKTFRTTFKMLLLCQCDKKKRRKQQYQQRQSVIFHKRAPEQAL

pIC50 [1, 4]: 5.00 to 6.00 | pIC50 [2, 5]: 6.00 to 7.00 | pIC50 [3]: 5.00 to 6.00
Compound: N#Cc1ccc(N2CC3CCC2CN3C(=O)CCNCc2cccc3ncsc23)nc1 (stereo not drawn) [Example 162, 6-[5-(3-{[(1,3-benzothiazol-7-yl)methyl]amino}propanoyl)-2,5-diazabicyclo[2.2.2]octan-2-yl]pyridine-3-carbonitrile]

Compound: O=C(CCNCc1cccn2nccc12)N1CC2CCC(C1)N2c1ccc(Cl)cn1 [Example 163, 1-[8-(5-chloropyridin-2-yl)-3,8-diazabicyclo[3.2.1]octan-3-yl]-3-[({pyrazolo[1,5-a]pyridin-4-yl}methyl)amino]propan-1-one]
pIC50 [1, 4]: 5.00 to 6.00 | pIC50 [2]: 6.00 to 7.00 | pIC50 [3]: < 5.00

Compound: N#Cc1ccc(N2C3CCC2CN(C(=O)CCN(Cc2cccc4ncnn24)C2CC2)C3)nc1 [Example 164, 6-(3-{3-[cyclopropyl({[1,2,4]triazolo[1,5-a]pyridin-5-yl}methyl)amino]propanoyl}-3,8-diazabicyclo[3.2.1]octan-8-yl)pyridine-3-carbonitrile]
pIC50 [1, 4]: 5.00 to 6.00 | pIC50 [2]: > 7.00 | pIC50 [3]: 5.00 to 6.00

Compound: N#Cc1ccc(N2C3CCC2CN(C(=O)CCNCc2cccn4nccc24)C3)nc1 [Example 165, 6-(3-{3-[({pyrazolo[1,5-a]pyridin-4-yl}methyl)amino]propanoyl}-3,8-diazabicyclo[3.2.1]octan-8-yl)pyridine-3-carbonitrile]
pIC50 [1, 4]: 5.00 to 6.00 | pIC50 [2]: 6.00 to 7.00 | pIC50 [3]: 5.00 to 6.00

Compound: N#Cc1ccc(N2C3CCC2CN(C(=O)CNCCc2cccc4ncsc24)C3)nc1 [Example 166, 6-[3-(2-{[2-(1,3-benzothiazol-7-yl)ethyl]amino}acetyl)-3,8-diazabicyclo[3.2.1]octan-8-yl]pyridine-3-carbonitrile]
pIC50 [1, 4]: 5.00 to 6.00 | pIC50 [2]: 6.00 to 7.00 | pIC50 [3]: 5.00 to 6.00

Compound: O=C(CCNCc1c(F)ccc2nccn12)N1CC2CCC(C1)N2c1ccc(Cl)cn1 [Example 167, 1-[8-(5-chloropyridin-2-yl)-3,8-diazabicyclo[3.2.1]octan-3-yl]-3-[({6-fluoroimidazo[1,2-a]pyridin-5-yl}methyl)amino]propan-1-one]
pIC50 [1, 4]: 5.00 to 6.00 | pIC50 [2]: > 7.00 | pIC50 [3]: < 5.00

Compound: Cc1nc2cccc(CNCCC(=O)N3CC4CCC(C3)N4c3ccc(C#N)cn3)n2n1 [Example 168, 6-(3-{3-[({2-methyl-[1,2,4]triazolo[1,5-a]pyridin-5-yl}methyl)amino]propanoyl}-3,8-diazabicyclo[3.2.1]octan-8-yl)pyridine-3-carbonitrile]
pIC50 [1, 4]: 5.00 to 6.00 | pIC50 [2]: 6.00 to 7.00 | pIC50 [3]: < 5.00

Compound: CN(CCC(=O)N1CC2CCC(C1)N2c1ccc(C#N)cn1)Cc1cccc2ncsc12 [Example 169, 6-[3-(3-{[(1,3-benzothiazol-7-yl)methyl](methyl)amino}propanoyl)-3,8-diazabicyclo[3.2.1]octan-8-yl]pyridine-3-carbonitrile]
pIC50 [1]: 6.00 to 7.00 | pIC50 [2]: 6.00 to 7.00 | pIC50 [3]: 5.00 to 6.00

Compound: CN(CCC(=O)N1CC2CCC(C1)N2c1ccc(C#N)cn1)Cc1cccc2ncnn12 [Example 170, 6-(3-{3-[methyl({[1,2,4]triazolo[1,5-a]pyridin-5-yl}methyl)amino]propanoyl}-3,8-diazabicyclo[3.2.1]octan-8-yl)pyridine-3-carbonitrile]
pIC50 [1, 4]: 5.00 to 6.00 | pIC50 [2]: 6.00 to 7.00 | pIC50 [3]: 5.00 to 6.00

Compound: N#Cc1ccc(N2C3CCC2CN(C(=O)CCNCc2cccc4ncnn24)C3)cc1 [Example 171, 4-(3-{3-[({[1,2,4]triazolo[1,5-a]pyridin-5-yl}methyl)amino]propanoyl}-3,8-diazabicyclo[3.2.1]octan-8-yl)benzonitrile]
pIC50 [1, 4]: < 5.00 | pIC50 [2]: 6.00 to 7.00 | pIC50 [3]: < 5.00

Compound: O=C(CCNCc1c(F)ccc2nccn12)N1CC2CCC(C1)N2c1ccc(C2CC2)cn1 [Example 172, 1-[8-(5-cyclopropylpyridin-2-yl)-3,8-diazabicyclo[3.2.1]octan-3-yl]-3-[({6-fluoroimidazo[1,2-a]pyridin-5-yl}methyl)amino]propan-1-one]
pIC50 [1, 4]: 5.00 to 6.00 | pIC50 [2, 5]: 5.00 to 6.00 | pIC50 [3]: < 5.00

Compound: Cc1ccc2ncnn2c1CNCCC(=O)N1CC2CCC(C1)N2c1ccc(C#N)cn1 [Example 173, 6-(3-{3-[({6-methyl-[1,2,4]triazolo[1,5-a]pyridin-5-yl}methyl)amino]propanoyl}-3,8-diazabicyclo[3.2.1]octan-8-yl)pyridine-3-carbonitrile]
pIC50 [1, 4]: < 5.00 | pIC50 [2]: 6.00 to 7.00 | pIC50 [3]: < 5.00

Compound: N#Cc1ccc(N2C3CCC2CN(C(=O)CCN(Cc2cccc4ncnn24)C2COC2)C3)nc1 [Example 174, 6-(3-{3-[(oxetan-3-yl)({[1,2,4]triazolo[1,5-a]pyridin-5-yl}methyl)amino]propanoyl}-3,8-diazabicyclo[3.2.1]octan-8-yl)pyridine-3-carbonitrile]
pIC50 [1, 4]: < 5.00 | pIC50 [2]: 6.00 to 7.00 | pIC50 [3]: < 5.00

Compound: N#Cc1ccc(-c2ccc(N3C4CCC3CN(C(=O)CCNCc3cccc5ncnn35)C4)cc2)nc1 [Example 175, 6-[4-(3-{3-[({[1,2,4]triazolo[1,5-a]pyridin-5-yl}methyl)amino]propanoyl}-3,8-diazabicyclo[3.2.1]octan-8-yl)phenyl]pyridine-3-carbonitrile]
pIC50 [1, 4]: 5.00 to 6.00 | pIC50 [2]: 6.00 to 7.00 | pIC50 [3]: < 5.00

Compound: Cc1ccc(COCCC(=O)N2CC3CCC(C2)N3c2ccc(C#N)cn2)c2cccnc12 [Example 176, 6-(3-{3-[(8-methylquinolin-5-yl)methoxy]propanoyl}-3,8-diazabicyclo[3.2.1]octan-8-yl)pyridine-3-carbonitrile]
pIC50 [1, 4]: 5.00 to 6.00 | pIC50 [2]: 6.00 to 7.00 | pIC50 [3]: < 5.00

Compound: Cc1ccc2ncccc2c1COCCC(=O)N1CC2CCC(C1)N2c1ccc(C#N)cn1 [Example 177, 6-(3-{3-[(6-methylquinolin-5-yl)methoxy]propanoyl}-3,8-diazabicyclo[3.2.1]octan-8-yl)pyridine-3-carbonitrile]
pIC50 [1, 4]: 5.00 to 6.00 | pIC50 [2]: > 7.00 | pIC50 [3]: 5.00 to 6.00

Compound: COc1cnc2cccc(CNCCC(=O)N3CC4CCC(C3)N4c3ccc(Cl)cn3)c2c1 [Example 178, 1-[8-(5-chloropyridin-2-yl)-3,8-diazabicyclo[3.2.1]octan-3-yl]-3-{[(3-methoxyquinolin-5-yl)methyl]amino}propan-1-one]
pIC50 [1, 4]: < 5.00 | pIC50 [2]: 6.00 to 7.00 | pIC50 [3]: < 5.00

Compound: O=C(COCCc1cccn2ncnc12)N1CC2CCC(C1)N2c1ccc(Cl)cn1 [Example 179, 1-[8-(5-chloropyridin-2-yl)-3,8-diazabicyclo[3.2.1]octan-3-yl]-2-(2-{[1,2,4]triazolo[1,5-a]pyridin-8-yl}ethoxy)ethan-1-one]
pIC50 [1, 4]: < 5.00 | pIC50 [2]: > 7.00 | pIC50 [3]: < 5.00

Compound: N#Cc1ccc(N2C3CCC2CN(C(=O)COCCc2cccn4ncnc24)C3)nc1 [Example 180, 6-{3-[2-(2-{[1,2,4]triazolo[1,5-a]pyridin-8-yl}ethoxy)acetyl]-3,8-diazabicyclo[3.2.1]octan-8-yl}pyridine-3-carbonitrile]
pIC50 [1, 4]: 5.00 to 6.00 | pIC50 [2]: > 7.00 | pIC50 [3]: < 5.00

Compound: COc1cnc2cccc(CCOCC(=O)N3CC4CCC(C3)N4c3ccc(C#N)cn3)c2c1 [Example 181, 6-(3-{2-[2-(3-methoxyquinolin-5-yl)ethoxy]acetyl}-3,8-diazabicyclo[3.2.1]octan-8-yl)pyridine-3-carbonitrile]
pIC50 [1, 4]: 5.00 to 6.00 | pIC50 [2]: > 7.00 | pIC50 [3]: 5.00 to 6.00

Compound: N#Cc1ccc(N2C3CCC2CN(C(=O)COCc2cccc4ncnn24)C3)nc1 [Example 182, 6-{3-[2-({[1,2,4]triazolo[1,5-a]pyridin-5-yl}methoxy)acetyl]-3,8-diazabicyclo[3.2.1]octan-8-yl}pyridine-3-carbonitrile]
pIC50 [1, 4]: < 5.00 | pIC50 [2, 5]: 5.00 to 6.00 | pIC50 [3]: < 5.00

Compound: N#Cc1ccc(N2C3CCC2CN(C(=O)COCCc2cccc4ncnn24)C3)nc1 [Example 183, 6-{3-[2-(2-{[1,2,4]triazolo[1,5-a]pyridin-5-yl}ethoxy)acetyl]-3,8-diazabicyclo[3.2.1]octan-8-yl}pyridine-3-carbonitrile]
pIC50 [1, 4]: < 5.00 | pIC50 [2]: > 7.00 | pIC50 [3]: 5.00 to 6.00

Compound: N#Cc1ccc(N2C3CCC2CN(C(=O)COCc2cccn4ncnc24)C3)nc1 [Example 184, 6-{3-[2-({[1,2,4]triazolo[1,5-a]pyridin-8-yl}methoxy)acetyl]-3,8-diazabicyclo[3.2.1]octan-8-yl}pyridine-3-carbonitrile]
pIC50 [1, 4]: < 5.00 | pIC50 [2]: > 7.00 | pIC50 [3]: < 5.00
